Experimental findings from patent US20220363665A1, “QUINOLINE COMPOUNDS FOR THE TREATMENT OF AUTOIMMUNE DISEASE” (Hoffmann-La Roche Inc., priority 2019, published 2022) are described below.

In one data set the target is T1, human TLR7 (Homo sapiens, UniProt Q9NYK1).
T1 construct: host or cells: HEK293 (HEK-Blue hTLR7)
T1 sequence (Q9NYK1 27-1049): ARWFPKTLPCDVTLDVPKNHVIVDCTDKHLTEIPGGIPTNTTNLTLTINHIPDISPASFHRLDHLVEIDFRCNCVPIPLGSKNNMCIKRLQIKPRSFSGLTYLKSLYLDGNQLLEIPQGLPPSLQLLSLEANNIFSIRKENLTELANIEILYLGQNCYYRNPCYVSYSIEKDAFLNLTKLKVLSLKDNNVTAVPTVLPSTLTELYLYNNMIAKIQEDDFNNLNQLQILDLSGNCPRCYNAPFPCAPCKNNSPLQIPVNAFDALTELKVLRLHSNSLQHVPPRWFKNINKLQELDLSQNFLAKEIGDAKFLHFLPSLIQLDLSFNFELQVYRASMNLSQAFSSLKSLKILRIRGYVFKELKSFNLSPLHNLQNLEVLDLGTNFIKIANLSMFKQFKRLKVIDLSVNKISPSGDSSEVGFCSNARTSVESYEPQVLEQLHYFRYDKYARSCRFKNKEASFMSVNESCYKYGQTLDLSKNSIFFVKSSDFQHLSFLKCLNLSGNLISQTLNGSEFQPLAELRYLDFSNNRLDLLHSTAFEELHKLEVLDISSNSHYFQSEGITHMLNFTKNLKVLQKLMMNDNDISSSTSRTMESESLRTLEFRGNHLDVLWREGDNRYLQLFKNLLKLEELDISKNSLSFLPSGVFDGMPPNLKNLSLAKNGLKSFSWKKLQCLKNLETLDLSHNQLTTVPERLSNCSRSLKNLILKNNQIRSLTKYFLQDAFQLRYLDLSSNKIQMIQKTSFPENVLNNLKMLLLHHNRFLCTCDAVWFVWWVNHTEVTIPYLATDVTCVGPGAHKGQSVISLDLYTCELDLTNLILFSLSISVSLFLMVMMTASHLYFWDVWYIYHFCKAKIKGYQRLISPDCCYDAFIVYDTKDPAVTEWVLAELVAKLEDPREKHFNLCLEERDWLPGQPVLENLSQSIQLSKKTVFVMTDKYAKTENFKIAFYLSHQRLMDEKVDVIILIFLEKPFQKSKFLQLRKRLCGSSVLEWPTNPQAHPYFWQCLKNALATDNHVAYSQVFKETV
The data set can be described thus: HEK293-Blue-hTLR-7 cells assay (SEAP reporter, R848 stimulation). The class given is cell-based. Particulars: HEK293-Blue-hTLR7 cells, R848, 20 hrs. How it is done:
The following tests were carried out in order to determine the activity of the compounds of formula (I) in HEK293-Blue-hTLR-7/8/9 cells assay.
HEK293-Blue-hTLR-7 Cells Assay:
A stable HEK293-Blue-hTLR-7 cell line was purchased from InvivoGen (Cat. #: hkb-htlr7, San Diego, Calif. USA). These cells were originally designed for studying the stimulation of human TLR7 by monitoring the activation of NF-κB. A SEAP (secreted embryonic alkaline phosphatase) reporter gene was placed under the control of the IFN-β minimal promoter fused to five NF-κB and AP-1-binding sites. The SEAP was induced by activating NF-κB and AP-1 via stimulating HEK-Blue hTLR7 cells with TLR7 ligands. Therefore the reporter expression was declined by TLR7 antagonist under the stimulation of a ligand, such as R848 (Resiquimod), for incubation of 20 hrs. The cell culture supernatant SEAP reporter activity was determined using QUANTI-Blue™ kit (Cat. #: rep-qbl, Invivogen, San Diego, Calif., USA) at a wavelength of 640 nm, a detection medium that turns purple or blue in the presence of alkaline phosphatase.
HEK293-Blue-hTLR7 cells were incubated at a density of 250,000˜450,000 cells/mL in a volume of 170 μL in a 96-well plate in Dulbecco's Modified Eagle's medium (DMEM) containing 4.5 g/L glucose, 50 U/mL penicillin, […], […], 2 mM L-glutamine, 10% (v/v) heat-inactivated fetal bovine serum with addition of 20 μL A test compound in a serial dilution in the presence of final DMSO at 1% and 10 μL of 20 uM R848 in above DMEM, perform incubation under 37° C. in a CO2 incubator for 20 hrs. Then 20 μL of the supernatant from each well was incubated with 180 μQuanti-blue substrate solution at 37° C. for 2 hrs and the absorbance was read at 620˜655 nm using a spectrophotometer. The signalling pathway that TLR7 activation leads to downstream NF-κB activation has been widely accepted, and therefore similar reporter assay was modified for evaluating TLR7 antagonist.

For another data set, the target named is T2, CYP3A4 (Homo sapiens, UniProt P08684).
T2 construct: tissue BD-Gentest 452117; host or cells: human liver microsomes
T2 sequence (P08684 whole entry): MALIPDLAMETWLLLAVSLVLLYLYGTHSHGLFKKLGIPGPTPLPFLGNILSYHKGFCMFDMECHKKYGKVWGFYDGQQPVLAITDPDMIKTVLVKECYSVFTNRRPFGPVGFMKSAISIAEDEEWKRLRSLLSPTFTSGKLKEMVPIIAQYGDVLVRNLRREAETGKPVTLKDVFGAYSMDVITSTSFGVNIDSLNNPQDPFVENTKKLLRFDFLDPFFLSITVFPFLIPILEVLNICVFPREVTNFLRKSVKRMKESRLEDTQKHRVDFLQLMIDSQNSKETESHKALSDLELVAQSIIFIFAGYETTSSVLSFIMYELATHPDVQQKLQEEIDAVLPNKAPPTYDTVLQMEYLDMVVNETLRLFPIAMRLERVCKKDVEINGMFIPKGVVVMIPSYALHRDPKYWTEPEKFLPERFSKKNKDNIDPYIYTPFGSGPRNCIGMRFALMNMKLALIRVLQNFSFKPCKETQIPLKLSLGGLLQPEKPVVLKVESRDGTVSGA
Put plainly: CYP inhibition assay in human liver microsome, CYP3A4. Particulars: HLM, midazolam substrate; for inhibition at 5 min, 10 µM: human, liver microsomes, probe midazolam, read-out: CYP inhibition % @10 uM (3A4). Format: in vitro ADME. How it is done: This is a high throughput screening assay used for assessment of reversible inhibition of CYP2C9, CYP2D6, and CYP3A4 activity of test compounds in human liver microsome (HLM) in early discovery stage.
10 mM DMSO stock solutions of test compounds were diluted in DMSO to generate 2 mM intermediate stock solution. 250 nL of intermediate stock solution were transferred in duplicate into 3 separate 384 well microtitre plates (assay-ready plates). A mixture of HLM and each substrate was made up. 45 μL of HLM substrate mix was then transferred to each well of an assay ready plate and mixed. The negative (solvent) and positive controls (standard inhibitor for each CYP) were included in each assay ready plate. The assay ready plate was warmed to 37° C. in an incubator over 10 minutes. 5 μL pre-warmed NADPH regenerating system was added to each incubation well to start the reaction. Final incubation volume was 50 μL. The assay plate then was placed back in the 37° C. incubator. After 5 minutes incubation (10 minutes for CYP2D6), incubates were quenched by addition of 50 μL quench reagent containing internal standards (400 ng/mL 13C6-4′-OH-Diclofenac, 20 ng/mL D3-Dextrorphan and 20 ng/mL D4-1′OH-Midazolam in acetonitrile). The supernatants were collected for RapidFire/MS/MS analysis.
RapidFire online solid phase extraction/sample injection system (Agilent) coupled with API4000 triple quadrupole mass spectrometer (AB Sciex) were used for sample analysis. The mobile phase composed of acetonitrile and water supplemented with 0.1% formic acid. A C4 solid phase extraction cartridge is used for sample separation. MS detection is achieved in positive ion MRM mode.
Peak areas for substrate, metabolite and internal standard are determined using the
RapidFire integrator software (version 3.6.12009.12296). Peak area ratios (PAR) of metabolite and internal standard (stable-labelled metabolite) are then calculated. The measurement window for each experiment is then defined:
PAR (0% activity)=average PAR for all incubations containing concentrated inhibitor;
Par (100% activity)=average PAR for all incubations containing no inhibitor (DMSO controls);
% Activity (test inhibitor) =[PAR(test inhibitor)-PAR(0% activity)][PAR(100% activity)-PAR(0% activity)];
% Inhibition (test inhibitor)=100-% Activity (test inhibitor).
Percentage inhibition data are then reported, in duplicate, for the 3 CYP enzymes.
A general note: Liver microsomes are vesicles of endoplasmic reticulum, rich in cytochrome P450 enzymes.

As a reminder, the IC50 is the midpoint of a concentration-inhibition curve. A lower IC50 goes with greater potency in that assay. In turn, `C[C@@H]1CN(c2ccc(C(F)(F)F)c3ncccc23)C[C@H](C(=O)NC2CC3CNCC32)O1` (single isomer, unassigned) [Example 49B] yielded an IC50 at human TLR7 of 20 nM. For the same molecule, the “CYP inhibition % @10 uM (3A4)” value on CYP3A4 is listed as −36%.

For orientation: inhibition means the drop in the measured response relative to a control, in per cent. In turn, `C[C@@H]1CN(c2ccc(C(F)(F)F)c3ncccc23)C[C@H](C(=O)NC2CCCNCC2)O1` (stereo partly drawn) [Example 8, (2R,6R)-N-(azepan-4-yl)-6-methyl-4-[8-(trifluoromethyl)-5-quinolyl]morpholine-2-carboxamide] had an IC50 on human TLR7 of 4 nM. In addition, on CYP3A4, the inhibition at 5 min, 10 µM was -34%. On the same counts, the results for `C[C@@H]1CN(c2ccc([N+](=O)[O-])c3ncccc23)C[C@H](C(=O)NC2CCN(C)CC2)O1` [Example 20, (2R,6R)-6-methyl-N-(1-methyl-4-piperidyl)-4-(8-nitro-5-quinolyl)morpholine-2-carboxamide] are 2 nM and 6%.

`C[C@@H]1CN(c2ccc(I)c3ncccc23)C[C@H](C(=O)NCC2CN(C)CCO2)O1` (stereo partly drawn) [Example 39, (2R,6R)-4-(8-iodo-5-quinolyl)-6-methyl-N-[(4-methylmorpholin-2-yl)methyl]morpholine-2-carboxamide]: the half-maximal inhibitory concentration (IC50) at human TLR7 was 7 nM. Also, at CYP3A4, the inhibition at 5 min, 10 µM was found to be 5%. For the molecule `C[C@@H]1CN(c2ccc(C(F)(F)F)c3ncccc23)C[C@H](C(=O)NCCN2CCOCC2)O1` [Example 13, (2R,6R)-6-methyl-N-(2-morpholinoethyl)-4-[8-(trifluoromethyl)-5-quinolyl]morpholine-2-carboxamide], the IC50 against human TLR7 came out at 290 nM. Also, at CYP3A4, the inhibition at 5 min, 10 µM is -22%. On the same counts, the results for `Cc1ccc(N2C[C@@H](C)O[C@@H](C(=O)NC3CCN(C)CC3)C2)c2cccnc12` [Example 16, (2R,6R)-6-methyl-N-(1-methyl-4-piperidyl)-4-(8-methyl-5-quinolyl)morpholine-2-carboxamide] are 74 nM and 2%. As to `C[C@@H]1CN(c2ccc(C(F)(F)F)c3ncccc23)C[C@H](C(=O)N2CCC(N)C2)O1` (stereo partly drawn) [Example 10, (3-aminopyrrolidin-1-yl)-[(2R,6R)-6-methyl-4-[8-(trifluoromethyl)-5-quinolyl]morpholin-2-yl]methanone], on human TLR7, the IC50 was 360 nM. At CYP3A4, the inhibition at 5 min, 10 µM was found to be 10%. As to `C[C@@H]1CN(c2ccc(C(F)(F)F)c3ncccc23)C[C@H](C(=O)NC2C3CCC2CNC3)O1` (stereo partly drawn) [Example 31, (2R,6R)-N-(3-azabicyclo[3.2.1]octan-8-yl)-6-methyl-4-[8-(trifluoromethyl)-5-quinolyl]morpholine-2-carboxamide], it took 5 nM to reach half-maximal inhibition at human TLR7 (IC50). Moreover, at CYP3A4, the inhibition at 5 min, 10 µM was -29%. Regarding `C[C@@H]1CN(c2ccc(Cl)c3ncccc23)C[C@H](C(=O)NCC2CN(C)CCO2)O1` (stereo partly drawn) [Example 26, (2R,6R)-4-(8-chloro-5-quinolyl)-6-methyl-N-[(4-methylmorpholin-2-yl)methyl]morpholine-2-carboxamide], on human TLR7, it took 23 nM to reach half-maximal inhibition (IC50). The inhibition at 5 min, 10 µM on CYP3A4 was -5%. At human TLR7, `C[C@@H]1CN(c2ccc(C(F)(F)F)c3ncccc23)C[C@H](C(=O)NCC2CN(C)CCO2)O1` (stereo partly drawn) [Example 3, (2R,6R)-6-methyl-N-[(4-methylmorpholin-2-yl)methyl]-4-[8-(trifluoromethyl)-5-quinolyl]morpholine-2-carboxamide] yielded a half-maximal inhibitory concentration (IC50) of 12 nM. For the same molecule, on CYP3A4, the inhibition at 5 min, 10 µM is -11%. In turn, `C[C@@H]1CN(c2ccc([N+](=O)[O-])c3ncccc23)C[C@H](C(=O)NCC2CN(C)CCO2)O1` (stereo partly drawn) [Example 18, (2R,6R)-6-methyl-N-[(4-methylmorpholin-2-yl)methyl]-4-(8-nitro-5-quinolyl)morpholine-2-carboxamide] returned a 50% inhibitory concentration (IC50) on human TLR7 of 5 nM. Moreover, the inhibition at 5 min, 10 µM at CYP3A4 was determined as 11%.

In turn, `C[C@@H]1CN(c2ccc(C(F)(F)F)c3ncccc23)C[C@H](C(=O)NC2CC3CNCC32)O1` (single isomer, unassigned) [Example 49A] showed a half-inhibitory concentration (IC50) at human TLR7 of 25 nM. For the same molecule, at CYP3A4, the “CYP inhibition % @10 uM (3A4)” value is on record as −25%. On to `C[C@@H]1CN(c2ccc(Cl)c3ncccc23)C[C@H](C(=O)NC2CCCNCC2)O1` (stereo partly drawn) [Example 25, (2R,6R)-N-(azepan-4-yl)-4-(8-chloro-5-quinolyl)-6-methyl-morpholine-2-carboxamide], for which the IC50 against human TLR7 came to 12 nM. On CYP3A4, the inhibition at 5 min, 10 µM came to 2%. Molecule `Cc1ccc(N2C[C@@H](C)C[C@@H](N)C2)c2cccnc12` [Example 15, (3R,5S)-5-methyl-1-(8-methyl-5-quinolyl)piperidin-3-amine] returned an IC50 against human TLR7 of 30 nM. Moreover, the inhibition at 5 min, 10 µM on CYP3A4 was -18%. At human TLR7, `Cc1ccc(N2C[C@@H](C)O[C@@H](C(=O)NCC3CN(C)CCO3)C2)c2cccnc12` (stereo partly drawn) [Example 17, (2R,6R)-6-methyl-N-[(4-methylmorpholin-2-yl)methyl]-4-(8-methyl-5-quinolyl)morpholine-2-carboxamide] gave an IC50 of 140 nM. For the same molecule, the inhibition at 5 min, 10 µM at CYP3A4 was -5%. In turn, `C[C@@H]1CN(c2ccc(C(F)(F)F)c3ncccc23)C[C@H](C(=O)N[C@@H]2CNC[C@@H]2F)O1` (single isomer, unassigned) [Example 2A] registered a 50% inhibitory concentration (IC50) against human TLR7 of 41 nM. The inhibition at 5 min, 10 µM on CYP3A4 was 5%. Turning to `C[C@@H]1CN(c2ccc(Br)c3ncccc23)C[C@H](C(=O)NC2CNCC2F)O1` (stereo partly drawn) [Example 41, cis-(2R,6R)-4-(8-bromo-5-quinolyl)-N-[4-fluoropyrrolidin-3-yl]-6-methyl-morpholine-2-carboxamide], at human TLR7, the IC50 amounted to 15 nM.
